The results in this text go back to US7858349B2, “Anti-cancer compounds” (The Regents of the University of Colorado, priority 1999, dated 2010).

The test system of one experiment is SCLC strain SHP-77. Briefly: MTT assay for cell survival, SCLC SHP-77 in vitro. The experiment is classed as cell-based, human. To be noted: ED50 for killing of SCLC strain SHP-77 in vitro, 4 days, 0 = no detectable activity, read-out: SCLC SHP-77 IC50. (In general: Tetrazolium assays rely on reduction of a dye to a coloured formazan, in cell work by metabolically active cells.)

For the next experiment, the system named is PC3 PC cells. The experiment can be described thus: Inhibition of PC3 tumor growth in vivo in nude mice. More on the design: species or system athymic nude mice; key to PC3 In vivo % inhib.: an IC50 value of “0” represents no detectable anti-cancer activity for a drug in a given cell line; “Stim.” indicates the observation of a stimulatory activity on the growth of the cancer cell line. Particulars: percent inhibition of tumor growth in nude mice; prostate cancer; i.p. 5 mg/kg/every second day or 10 mg/kg/every fourth day. How it is done:
Compounds having high in vitro cytotoxic activity were tested against implanted tumors in vivo. Athymic nude mice were implanted subcutaneously with suspensions (2 million SHP-77 SCLC cells, 1 million A549 NSCLC cells or 1.5 million PC3 PC cells) in Matrigel suspension. On the eighth day after tumor implantation groups of 5 mice bearing implants were injected intraperitoneally with the compounds being tested at 5 mg/kg/every second day or at 10 mg/kg/every fourth day; control animals were injected with an equal volume of isotonic saline. Less soluble compounds were initially dissolved in dimethyl sulfoxide (DMSO) and diluted with medium. In those cases the control injections contained the same concentration of DMSO. Tumor size was measured with a caliper three times per week. Tumor volume was calculated by the formula: Volume(cc)=3.14×(length)×(width)^2/6 At autopsy tumors were removed and weighed. Tumor inhibition was calculated on both weight and measurement basis. In each Table, an IC50 value of “0” represents no detectable anti-cancer activity for a drug in a given cell line and “Stim.” indicates the observation of a stimulatory activity on the growth of the cancer cell line.

As a reminder, the IC50 is the concentration that inhibits the measured activity by half.

On to `COc1ccc2c(c1)c(CC(=O)N[C@@H](Cc1ccc(OCc3c(Cl)cccc3Cl)cc1)C(=O)NC1CCN(Cc3ccccc3)CC1)c(C)n2C(=O)c1ccc(Cl)cc1` [Analog M-1558, Indo-OC2Y-Abzp], for which, in the experiment with SCLC strain SHP-77, the IC50 came out at 9.6 µM. In addition, the “PC3 In vivo % inhib.” value with PC3 PC cells was “Stim”.

Regarding `COc1ccc2c(c1)c(CC(=O)NC(Cc1ccc(OCc3c(Cl)cccc3Cl)cc1)C(=O)N1CC(C)N(Cc3ccccc3)C(C)C1)c(C)n2C(=O)c1ccc(Cl)cc1` (stereo not drawn) [Analog M-1560, Indo-OC2Y-cDmbp], the IC50 in the experiment on SCLC strain SHP-77 was greater than 60 µM. Moreover, the “PC3 In vivo % inhib.” value in the experiment on PC3 PC cells was “Stim”.

`COc1ccc2c(c1)c(CC(=O)N[C@@H](Cc1ccc(OCc3c(Cl)cccc3Cl)cc1)C(=O)N1CCN(c3ncccn3)CC1)c(C)n2C(=O)c1ccc(Cl)cc1` [Analog M-1562, Indo-OC2Y-Pmpz]: the 50% inhibitory concentration (IC50) in the experiment on SCLC strain SHP-77 is greater than 60 µM. In addition, in the experiment with PC3 PC cells, the “PC3 In vivo % inhib.” value is recorded as 2%.

For `COc1ccc2c(c1)c(CC(=O)N[C@@H](Cc1ccc(OCc3c(Cl)cccc3Cl)cc1)C(=O)N1CCN(C/C=C/c3ccccc3)CC1)c(C)n2C(=O)c1ccc(Cl)cc1` [Analog M-1566, Indo-OC2Y-tCip], the IC50 in the experiment on SCLC strain SHP-77 was greater than 60 µM. Besides, the “PC3 In vivo % inhib.” value in the experiment with PC3 PC cells turned out to be 57%.

On to `Cc1onc(-c2ccccc2Cl)c1C(=O)N[C@@H](Cc1ccc(OCc2c(Cl)cccc2Cl)cc1)C(=O)NC1CC(C)(C)NC(C)(C)C1` [Analog M-1568, Cmioc-OC2Y-Atmp], for which the concentration for half-maximal inhibition (IC50) in the experiment with SCLC strain SHP-77 amounted to 3.6 µM. Also, the “PC3 In vivo % inhib.” value in the experiment with PC3 PC cells was “Stim”.

For the molecule `CC1(C)CC(NC(=O)C(Cc2ccc(OCc3c(Cl)cccc3Cl)cc2)NC(=O)C=CC(=O)c2ccccc2)CC(C)(C)N1` (stereo not drawn) [Analog M-1576, Bzac-OC2Y-Atmp], the IC50 with SCLC strain SHP-77 was 6.2 µM. In addition, the “PC3 In vivo % inhib.” value with PC3 PC cells is 57%.

On to `CN1CCN(CCCNC(=O)[C@H](Cc2ccc(OCc3c(Cl)cccc3Cl)cc2)NC(=O)/C=C/c2c(F)c(F)c(F)c(F)c2F)CC1` [Analog M-1582, F5c-OC2Y-Amp], for which, in the experiment with SCLC strain SHP-77, the half-maximal inhibitory concentration (IC50) was found to be 6.7 µM. Also, the “PC3 In vivo % inhib.” value in the experiment on PC3 PC cells is 60%.

On to `COc1ccc2c(c1)c(CC(=O)N[C@@H](Cc1ccc(OCc3c(Cl)cccc3Cl)cc1)C(=O)NCCCN1CCN(C)CC1)c(C)n2C(=O)c1ccc(Cl)cc1` [Analog M-1584, Indo-OC2Y-Amp], for which, in the experiment with SCLC strain SHP-77, the IC50 turned out to be 1.5 µM. In the experiment on PC3 PC cells, the “PC3 In vivo % inhib.” value was found to be 32%.

On to `COc1ccc2c(c1)c(CC(=O)N[C@H](Cc1ccc(OCc3c(Cl)cccc3Cl)cc1)C(=O)NC1CC(C)(C)NC(C)(C)C1)c(C)n2C(=O)c1ccc(Cl)cc1` [Analog M-1586, Indo-D-OC2Y-Atmp], for which, in the experiment on SCLC strain SHP-77, the 50% inhibitory concentration (IC50) stood at 1.7 µM. Further, the “PC3 In vivo % inhib.” value in the experiment on PC3 PC cells worked out at 38%.

With `COc1ccc2c(c1)c(CC(=O)NC(Cc1ccc(OCc3c(Cl)cccc3Cl)cc1)C(=O)NC1CN3CCC1CC3)c(C)n2C(=O)c1ccc(Cl)cc1` [Analog M-1588, Indo-OC2Y-(R)-Aqu], the concentration for half-maximal inhibition (IC50) in the experiment with SCLC strain SHP-77 was determined as 3.9 µM. The “PC3 In vivo % inhib.” value in the experiment on PC3 PC cells amounted to 8%.

`COc1ccc2c(c1)c(CC(=O)NC(Cc1ccc(OCc3c(Cl)cccc3Cl)cc1)C(=O)NC1CN3CCC1CC3)c(C)n2C(=O)c1ccc(Cl)cc1` [Analog M-1590, Indo-OC2Y-(S)-Aqu]: in the experiment on SCLC strain SHP-77, the IC50 is 4.1 µM. Also, the “PC3 In vivo % inhib.” value in the experiment on PC3 PC cells is reported as “Stim”.

For the molecule `CC1(C)CC(NC(=O)[C@H](Cc2ccc(OCc3c(Cl)cccc3Cl)cc2)NC(=O)c2ccc(N)cc2O)CC(C)(C)N1` [Analog M-1592, Pas-OC2Y-Atmp], in the experiment on SCLC strain SHP-77, the IC50 came to 7.2 µM. The “PC3 In vivo % inhib.” value in the experiment with PC3 PC cells is “Stim”.

Consider `CC1(C)CC(NC(=O)[C@H](Cc2ccc(OCc3c(Cl)cccc3Cl)cc2)NCc2c(F)c(F)c(F)c(F)c2F)CC(C)(C)N1` [Analog M-1594, F5b-OC2Y-Atmp], for which, in the experiment on SCLC strain SHP-77, the IC50 worked out at 3.1 µM. Further, in the experiment with PC3 PC cells, the “PC3 In vivo % inhib.” value worked out at 20%.

As for `CC1(C)CC(NC(=O)[C@H](Cc2ccc(OCc3c(Cl)cccc3Cl)cc2)NCC=C(c2ccccc2)c2ccccc2)CC(C)(C)N1` [Analog M-1600, Pcnl-OC2Y-Atmp], the half-maximal inhibitory concentration (IC50) in the experiment on SCLC strain SHP-77 stood at 4.1 µM. Besides, the “PC3 In vivo % inhib.” value in the experiment on PC3 PC cells is on record as 44%.

Turning to `CC1(C)CC(NC(=O)[C@H](Cc2ccc(OCc3c(Cl)cccc3Cl)cc2)NC(=O)c2c3ccccc3nc3ccccc23)CC(C)(C)N1` [Analog M-1602, Acrc-OC2Y-Atmp], in the experiment with SCLC strain SHP-77, the concentration for half-maximal inhibition (IC50) came to 1.6 µM. In the experiment on PC3 PC cells, the “PC3 In vivo % inhib.” value is recorded as “Stim”.

On to `CC1(C)CC(NC(=O)[C@H](Cc2ccc(OCc3c(Cl)cccc3Cl)cc2)NCc2cnc3ccccc3c2)CC(C)(C)N1` [Analog M-1604, 3Qum-OC2Y-Atmp], for which, in the experiment on SCLC strain SHP-77, the concentration for half-maximal inhibition (IC50) stood at 7.4 µM. Besides, the “PC3 In vivo % inhib.” value in the experiment on PC3 PC cells is “Stim”.

Consider `CC1(C)CC(NC(=O)[C@H](Cc2ccc(OC(=O)OCc3ccccc3Br)cc2)NC(=O)/C=C/c2c(F)c(F)c(F)c(F)c2F)CC(C)(C)N1` [Analog M-1608, F5c-ObrZY-Atmp], for which, in the experiment on SCLC strain SHP-77, the half-inhibitory concentration (IC50) is 10 µM. Besides, the “PC3 In vivo % inhib.” value with PC3 PC cells was 29%.

As for `Cc1ncc(CO)c(CN[C@@H](Cc2ccc(OCc3c(Cl)cccc3Cl)cc2)C(=O)NC2CC(C)(C)NC(C)(C)C2)c1O` [Analog M-1610, B6-OC2Y-Atmp], the IC50 in the experiment with SCLC strain SHP-77 was greater than 60 µM. Also, the “PC3 In vivo % inhib.” value in the experiment with PC3 PC cells is “Stim”.

As for `Cc1ncc(COP(=O)(O)O)c(CN[C@@H](Cc2ccc(OCc3c(Cl)cccc3Cl)cc2)C(=O)NC2CC(C)(C)NC(C)(C)C2)c1O` [Analog M-1612, B6P-OC2Y-Atmp], in the experiment with SCLC strain SHP-77, the IC50 was greater than 60 µM. Also, the “PC3 In vivo % inhib.” value with PC3 PC cells is on record as “Stim”.

For `C=CCN1C(C)CN(C(=O)C(Cc2ccc(OCc3c(Cl)cccc3Cl)cc2)NC(=O)C=Cc2c(F)c(F)c(F)c(F)c2F)CC1C` (stereo not drawn) [Analog M-1614, F5c-OC2Y-cDmap], the IC50 in the experiment with SCLC strain SHP-77 turned out to be 2 µM. The “PC3 In vivo % inhib.” value in the experiment on PC3 PC cells was 54%.

Regarding `CC1(C)CC(NC(=O)[C@H](Cc2ccc(OCc3c(Cl)cccc3Cl)cc2)NC(=O)CCP(=O)(O)O)CC(C)(C)N1` [Analog M-1616, 3Php-OC2Y-Atmp], the IC50 with SCLC strain SHP-77 is greater than 60 µM. Moreover, the “PC3 In vivo % inhib.” value with PC3 PC cells stood at 18%.

On to `CC1(C)CC(NC(=O)[C@H](Cc2ccc(OCc3c(Cl)cccc3Cl)cc2)NC(=O)c2ccc3c(c2)C(=O)c2ccccc2C3=O)CC(C)(C)N1` [Analog M-1618, Aq2c-OC2Y-Atmp], for which the IC50 in the experiment with SCLC strain SHP-77 was determined as 2.2 µM. In the experiment with PC3 PC cells, the “PC3 In vivo % inhib.” value is listed as 10%.

In the case of `Cc1ncc(CO)c(CNC(=O)[C@H](Cc2ccc(OCc3c(Cl)cccc3Cl)cc2)NC(=O)/C=C/c2c(F)c(F)c(F)c(F)c2F)c1O` [Analog M-1622, F5c-OC2Y-Pxa], in the experiment on SCLC strain SHP-77, the IC50 is 22 µM. The “PC3 In vivo % inhib.” value in the experiment on PC3 PC cells stood at 58%.

For `O=C(/C=C/c1c(F)c(F)c(F)c(F)c1F)N[C@@H](Cc1ccc(OCc2c(Cl)cccc2Cl)cc1)C(=O)NCc1nc2ccccc2[nH]1` [Analog M-1624, F5c-OC2Y-Ambi], the IC50 with SCLC strain SHP-77 is 50 µM. Besides, the “PC3 In vivo % inhib.” value in the experiment with PC3 PC cells is recorded as 68%.

With `CC1(C)CC(NC(=O)C(Cc2ccc(OCc3c(Cl)cccc3Cl)cc2)NC(=O)C2CSC(=O)N2)CC(C)(C)N1` (stereo not drawn) [Analog M-1630, Otac-OC2Y-Atmp], the IC50 in the experiment with SCLC strain SHP-77 amounted to 60 µM. Also, the “PC3 In vivo % inhib.” value in the experiment with PC3 PC cells amounted to 71%.

Turning to `O=C(/C=C/c1c(F)c(F)c(F)c(F)c1F)N[C@@H](Cc1ccc(OCc2c(Cl)cccc2Cl)cc1)C(=O)NCCN1CCOCC1` [Analog M-1632, F5c-OC2Y-Aem], the IC50 in the experiment with SCLC strain SHP-77 was determined as 7.8 µM. Moreover, the “PC3 In vivo % inhib.” value in the experiment with PC3 PC cells is listed as 32%.

With `O=C([C@H](Cc1ccc(OCc2c(Cl)cccc2Cl)cc1)NCc1c(F)c(F)c(F)c(F)c1F)N1CCN(C/C=C/c2ccccc2)CC1` [Analog M-1634, F5b-OC2Y-tCip], the IC50 with SCLC strain SHP-77 was greater than 60 µM. The “PC3 In vivo % inhib.” value in the experiment with PC3 PC cells is “Stim”.
